Test results: ChEMBL document CHEMBL1154040, “Synthesis and evaluation of novel F-18 labeled fluoroarylvaline derivatives: potential PET imaging agents for tumor detection” (Bioorg Med Chem Lett, 2009)

System: Liver
Assay: Biodistribution in S180 tumor-bearing KM mouse liver assessed per gram of tissue weight at 240 to 370 kBq, iv after 15 mins
Assay type: ADME, organism-based
Conditions: in vivo, 0.25 h

Drug uptake | SMILES
8.6 %ID | COC(=O)[C@@H](NC(=O)c1ccc([N+](=O)[O-])cc1[18F])C(C)C

System: Heart
Assay: Biodistribution in S180 tumor-bearing KM mouse heart assessed per gram of tissue weight at 240 to 370 kBq, iv after 120 mins
Assay type: ADME, organism-based
Conditions: in vivo, 2 h

Drug uptake | SMILES
0.08 %ID | COC(=O)[C@@H](NC(=O)c1ccc([N+](=O)[O-])cc1[18F])C(C)C

System: Heart
Assay: Biodistribution in S180 tumor-bearing KM mouse heart assessed per gram of tissue weight at 240 to 370 kBq, iv after 60 mins
Assay type: ADME, organism-based
Conditions: in vivo, 1 h

Drug uptake | SMILES
0.19 %ID | COC(=O)[C@@H](NC(=O)c1ccc([N+](=O)[O-])cc1[18F])C(C)C

System: Heart
Assay: Biodistribution in S180 tumor-bearing KM mouse heart assessed per gram of tissue weight at 240 to 370 kBq, iv after 15 mins
Assay type: ADME, organism-based
Conditions: in vivo, 0.25 h

Drug uptake | SMILES
0.6 %ID | COC(=O)[C@@H](NC(=O)c1ccc([N+](=O)[O-])cc1[18F])C(C)C

System: Heart
Assay: Biodistribution in S180 tumor-bearing KM mouse heart assessed per gram of tissue weight at 240 to 370 kBq, iv after 5 mins
Assay type: ADME, organism-based
Conditions: in vivo

Drug uptake | SMILES
1.35 %ID | COC(=O)[C@@H](NC(=O)c1ccc([N+](=O)[O-])cc1[18F])C(C)C

System: Blood
Assay: Biodistribution in S180 tumor-bearing KM mouse blood assessed per gram of tissue weight at 240 to 370 kBq, iv after 120 mins
Assay type: ADME, organism-based
Conditions: in vivo, 2 h

Drug uptake | SMILES
0.19 %ID | COC(=O)[C@@H](NC(=O)c1ccc([N+](=O)[O-])cc1[18F])C(C)C

System: Blood
Assay: Biodistribution in S180 tumor-bearing KM mouse blood assessed per gram of tissue weight at 240 to 370 kBq, iv after 15 mins
Assay type: ADME, organism-based
Conditions: in vivo, 0.25 h

Drug uptake | SMILES
2.18 %ID | COC(=O)[C@@H](NC(=O)c1ccc([N+](=O)[O-])cc1[18F])C(C)C

System: Blood
Assay: Biodistribution in S180 tumor-bearing KM mouse blood assessed per gram of tissue weight at 240 to 370 kBq, iv after 5 mins
Assay type: ADME, organism-based
Conditions: in vivo

Drug uptake | SMILES
3.09 %ID | COC(=O)[C@@H](NC(=O)c1ccc([N+](=O)[O-])cc1[18F])C(C)C

System: Brain
Assay: Biodistribution in S180 tumor-bearing KM mouse brain assessed per gram of tissue at 240 to 370 kBq, iv after 120 mins
Assay type: ADME, organism-based
Conditions: in vivo, 2 h

Drug uptake | SMILES
0.12 %ID | COC(=O)[C@@H](NC(=O)c1ccc([N+](=O)[O-])cc1[18F])C(C)C

System: not listed separately
Assay: Biodistribution in S180 tumor present in KM mouse assessed per gram of tissue at 240 to 370 kBq, iv after 5 mins
Assay type: ADME, organism-based, Neoplasm
Conditions: in vivo

Drug uptake | SMILES
2.78 %ID | COC(=O)[C@@H](NC(=O)c1ccc([N+](=O)[O-])cc1[18F])C(C)C

System: not listed separately
Assay: Biodistribution in S180 tumor present in KM mouse assessed per gram of tissue at 240 to 370 kBq, iv after 15 mins
Assay type: ADME, organism-based, Neoplasm
Conditions: in vivo, 0.25 h

Drug uptake | SMILES
2.06 %ID | COC(=O)[C@@H](NC(=O)c1ccc([N+](=O)[O-])cc1[18F])C(C)C

System: not listed separately
Assay: Biodistribution in S180 tumor present in KM mouse assessed per gram of tissue at 240 to 370 kBq, iv after 30 mins
Assay type: ADME, organism-based, Neoplasm
Conditions: in vivo, 0.5 h

Drug uptake | SMILES
1.97 %ID | COC(=O)[C@@H](NC(=O)c1ccc([N+](=O)[O-])cc1[18F])C(C)C

System: not listed separately
Assay: Biodistribution in S180 tumor present in KM mouse assessed per gram of tissue at 240 to 370 kBq, iv after 60 mins
Assay type: ADME, organism-based, Neoplasm
Conditions: in vivo, 1 h

Drug uptake | SMILES
0.95 %ID | COC(=O)[C@@H](NC(=O)c1ccc([N+](=O)[O-])cc1[18F])C(C)C

System: not listed separately
Assay: Biodistribution in S180 tumor present in KM mouse assessed per gram of tissue at 240 to 370 kBq, iv after 120 mins
Assay type: ADME, organism-based, Neoplasm
Conditions: in vivo, 2 h

Drug uptake | SMILES
0.31 %ID | COC(=O)[C@@H](NC(=O)c1ccc([N+](=O)[O-])cc1[18F])C(C)C

System: not listed separately
Assay: Ratio of drug level in S180 tumor to blood in KM mouse at 240 to 370 kBq, iv after 60 mins
Assay type: ADME, organism-based
Conditions: tumour, 1 h

tumor/blood ratio | SMILES
3.44 | COC(=O)[C@@H](NC(=O)c1ccc([N+](=O)[O-])cc1[18F])C(C)C

System: not listed separately
Assay: Ratio of drug level in S180 tumor to brain KM mouse at 240 to 370 kBq, iv after 30 mins
Assay type: ADME, organism-based
Conditions: in vivo, 0.5 h

tumor/brain ratio | SMILES
7.06 | COC(=O)[C@@H](NC(=O)c1ccc([N+](=O)[O-])cc1[18F])C(C)C

System: not listed separately
Assay: Ratio of drug level in S180 tumor to brain KM mouse at 240 to 370 kBq, iv after 60 mins
Assay type: ADME, organism-based
Conditions: in vivo, 1 h

tumor/brain ratio | SMILES
5.61 | COC(=O)[C@@H](NC(=O)c1ccc([N+](=O)[O-])cc1[18F])C(C)C

System: not listed separately
Assay: Ratio of drug level in S180 tumor to brain KM mouse at 240 to 370 kBq, iv after 120 mins
Assay type: ADME, organism-based
Conditions: in vivo, 2 h

tumor/brain ratio | SMILES
2.61 | COC(=O)[C@@H](NC(=O)c1ccc([N+](=O)[O-])cc1[18F])C(C)C

System: not listed separately
Assay: Ratio of drug level in S180 tumor to muscleKM mouse at 240 to 370 kBq, iv after 5 mins
Assay type: ADME, organism-based, KM
Conditions: in vivo

tumor/muscle ratio | SMILES
1.94 | COC(=O)[C@@H](NC(=O)c1ccc([N+](=O)[O-])cc1[18F])C(C)C

System: not listed separately
Assay: Ratio of drug level in S180 tumor to muscleKM mouse at 240 to 370 kBq, iv after 15 mins
Assay type: ADME, organism-based, KM
Conditions: in vivo, 0.25 h

tumor/muscle ratio | SMILES
1.48 | COC(=O)[C@@H](NC(=O)c1ccc([N+](=O)[O-])cc1[18F])C(C)C

System: not listed separately
Assay: Ratio of drug level in S180 tumor to muscleKM mouse at 240 to 370 kBq, iv after 30 mins
Assay type: ADME, organism-based, KM
Conditions: in vivo, 0.5 h

tumor/muscle ratio | SMILES
2.41 | COC(=O)[C@@H](NC(=O)c1ccc([N+](=O)[O-])cc1[18F])C(C)C

System: not listed separately
Assay: Ratio of drug level in S180 tumor to muscleKM mouse at 240 to 370 kBq, iv after 60 mins
Assay type: ADME, organism-based, KM
Conditions: in vivo, 1 h

tumor/muscle ratio | SMILES
1.39 | COC(=O)[C@@H](NC(=O)c1ccc([N+](=O)[O-])cc1[18F])C(C)C
